Results reported in patent US20260297085A1, “1 H-PYRROLO[2,3-B]PYRIDIN-4-YL]-2-OXOPYRROLIDINE-3-CARBONITRILE DERIVATIVES AS TYROSINE KINASE 2 (TYK2) INHIBITORS FOR THE TREATMENT OF INFLAMMATORY DISEASES” (BIOGEN MA INC., priority 2023, published 2026).

Assays:
[1] = target: T1, human JAK2 kinase domain (JH1) (Homo sapiens, UniProt O60674); experiment: JH1 biochemical assay for JAK2 (ADP-Glo kinase assay, recombinant JH1 catalytic domain, JAK3-974 peptide, 15 μM ATP); details: JAK2 JH1, ADP-Glo
T1 construct: recombinantly generated catalytic kinase (also known as JH1) domain of human JAK1, JAK2, JAK3 and TYK2
Procedure, shortened: (§1)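 Reactions ran 100 min with 50 μM substrate peptide (JAK3-342 for JAK1 at 4 nM enzyme; JAK3-974 for JAK2 0.2 nM, JAK3 0.3 nM, TYK2 2 nM), and ADP formed was read by ADP-Glo luminescence. Eleven-point 3-fold series from 10 or 1 μM; IC50 fitted by 4-parameter logistic model.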

[2] = target: JAK1 kinase activity on STAT3 in TF1 cells (Homo sapiens, UniProt P23458); experiment: pSTAT3 cell assay (MSD; TF1 cells, 30 ng/mL IL-6 stimulation); format: cell-based; details: 30 ng/mL IL-6, 15 minutes
Procedure, shortened: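 IC50 values reflect 4-parameter logistic fits of normalized pSTAT3 signal, measured by MSD in lysed TF1 cells. Cells were serum-starved and treated with compound for 1 h (top concentration 10 μM) before a 15 min IL-6 challenge.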

[3] = target: T2, human JAK3 kinase domain (JH1) (Homo sapiens, UniProt P52333); experiment: JH1 biochemical assay for JAK3 (ADP-Glo kinase assay, recombinant JH1 catalytic domain, JAK3-974 peptide, 4 μM ATP); details: JAK3 JH1, ADP-Glo
T2 construct: recombinantly generated catalytic kinase (also known as JH1) domain of human JAK1, JAK2, JAK3 and TYK2
Procedure, shortened: as §1

[4] = target: JAK2 kinase activity on STAT5 in TF1 cells (Homo sapiens, UniProt O60674); experiment: pSTAT5 cell assay (MSD; TF1 cells, 30 ng/mL IL-3 stimulation); format: cell-based; details: 30 ng/mL IL-3, 15 minutes
Procedure, shortened: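 IC50 from a 4-parameter logistic fit of normalized pSTAT5 signal, measured by MSD in lysates of TF1 cells. Cells were serum-starved, exposed to compound for 1 h (top concentration 10 μM, four-fold, 10 points), then given IL-3 at 30 ng/mL for 15 min.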

[5] = target: T3, human JAK1 kinase domain (JH1) (Homo sapiens, UniProt P23458); experiment: JH1 biochemical assay for JAK1 (ADP-Glo kinase assay, recombinant JH1 catalytic domain, JAK3-342 peptide, 35 μM ATP); details: JAK1 JH1, ADP-Glo
T3 construct: recombinantly generated catalytic kinase (also known as JH1) domain of human JAK1, JAK2, JAK3 and TYK2
Procedure, shortened: as §1

[6] = target: Tyk2 kinase activity on STAT4 in NK92 cells (Homo sapiens, UniProt P29597); experiment: pSTAT4 cell assay (MSD; NK92 cells, 30 ng/mL IL2 stimulation); format: cell-based; details: 30 ng/mL IL2, 15 minutes
Procedure, shortened: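 Cells natively expressing STAT4 and Tyk2 (NK92) are serum-starved to lower background phosphorylation, exposed to compound for 1 hr over a 10-point four-fold series starting at 10 μM, and stimulated with 30 ng/mL IL2 for 15 minutes. Phosphorylation is quantified on MSD with anti-STAT4 antibodies.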

[7] = target: T4, human TYK2 kinase domain (JH1) (Homo sapiens, UniProt P29597); experiment: JH1 biochemical assay for TYK2 (ADP-Glo kinase assay, recombinant JH1 catalytic domain, JAK3-974 peptide, 10 μM ATP); details: TYK2 JH1, ADP-Glo
T4 construct: recombinantly generated catalytic kinase (also known as JH1) domain of human JAK1, JAK2, JAK3 and TYK2
T4 sequence (P29597 897-1176 limits assumed): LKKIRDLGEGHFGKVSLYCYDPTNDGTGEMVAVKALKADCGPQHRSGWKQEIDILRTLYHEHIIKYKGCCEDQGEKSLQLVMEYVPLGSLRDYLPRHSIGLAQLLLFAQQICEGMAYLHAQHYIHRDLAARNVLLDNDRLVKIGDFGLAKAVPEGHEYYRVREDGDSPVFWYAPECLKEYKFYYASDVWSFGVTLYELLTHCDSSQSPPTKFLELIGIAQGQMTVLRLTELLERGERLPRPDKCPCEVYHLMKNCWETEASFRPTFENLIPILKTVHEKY
Procedure, shortened: as §1

Sequence of JAK1 kinase activity on STAT3 in TF1 cells (P23458 whole entry): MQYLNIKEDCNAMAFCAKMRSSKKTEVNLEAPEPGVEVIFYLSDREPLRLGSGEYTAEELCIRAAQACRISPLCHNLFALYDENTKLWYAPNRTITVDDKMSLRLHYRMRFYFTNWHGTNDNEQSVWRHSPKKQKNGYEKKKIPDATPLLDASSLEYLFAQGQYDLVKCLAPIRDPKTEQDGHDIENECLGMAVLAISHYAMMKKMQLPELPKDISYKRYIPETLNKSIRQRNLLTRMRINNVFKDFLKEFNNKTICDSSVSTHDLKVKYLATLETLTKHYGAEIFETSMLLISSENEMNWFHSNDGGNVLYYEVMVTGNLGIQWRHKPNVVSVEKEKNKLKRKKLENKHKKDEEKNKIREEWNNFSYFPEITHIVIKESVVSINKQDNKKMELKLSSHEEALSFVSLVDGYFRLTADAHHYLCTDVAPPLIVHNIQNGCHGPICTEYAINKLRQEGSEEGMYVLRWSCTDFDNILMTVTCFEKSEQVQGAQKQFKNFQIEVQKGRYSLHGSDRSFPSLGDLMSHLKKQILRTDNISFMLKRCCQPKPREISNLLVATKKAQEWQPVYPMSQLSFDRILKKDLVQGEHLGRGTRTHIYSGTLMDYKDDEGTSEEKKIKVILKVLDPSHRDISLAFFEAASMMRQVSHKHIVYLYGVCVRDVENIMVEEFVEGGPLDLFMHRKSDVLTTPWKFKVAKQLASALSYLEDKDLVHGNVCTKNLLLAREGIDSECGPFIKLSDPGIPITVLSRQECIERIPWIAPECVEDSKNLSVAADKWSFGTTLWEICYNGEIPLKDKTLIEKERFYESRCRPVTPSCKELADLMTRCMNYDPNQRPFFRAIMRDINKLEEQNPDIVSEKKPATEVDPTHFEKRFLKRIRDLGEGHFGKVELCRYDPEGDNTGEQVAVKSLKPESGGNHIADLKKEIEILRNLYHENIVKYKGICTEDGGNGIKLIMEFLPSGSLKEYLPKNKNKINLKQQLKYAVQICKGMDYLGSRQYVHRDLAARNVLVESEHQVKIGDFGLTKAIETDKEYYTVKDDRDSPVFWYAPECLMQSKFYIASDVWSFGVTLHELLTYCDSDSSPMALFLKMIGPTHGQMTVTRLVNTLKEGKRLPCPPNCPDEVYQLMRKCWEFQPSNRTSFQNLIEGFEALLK
T3 sequence (P23458 875-1153 limits assumed): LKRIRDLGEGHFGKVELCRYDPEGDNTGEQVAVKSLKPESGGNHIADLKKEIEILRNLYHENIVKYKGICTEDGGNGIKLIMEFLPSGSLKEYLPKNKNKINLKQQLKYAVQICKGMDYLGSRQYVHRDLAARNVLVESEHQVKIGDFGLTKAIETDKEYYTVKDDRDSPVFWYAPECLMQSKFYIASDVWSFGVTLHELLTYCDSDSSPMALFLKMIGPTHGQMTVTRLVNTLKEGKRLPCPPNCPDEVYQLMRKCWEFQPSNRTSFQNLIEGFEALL
Sequence of Tyk2 kinase activity on STAT4 in NK92 cells (P29597 whole entry): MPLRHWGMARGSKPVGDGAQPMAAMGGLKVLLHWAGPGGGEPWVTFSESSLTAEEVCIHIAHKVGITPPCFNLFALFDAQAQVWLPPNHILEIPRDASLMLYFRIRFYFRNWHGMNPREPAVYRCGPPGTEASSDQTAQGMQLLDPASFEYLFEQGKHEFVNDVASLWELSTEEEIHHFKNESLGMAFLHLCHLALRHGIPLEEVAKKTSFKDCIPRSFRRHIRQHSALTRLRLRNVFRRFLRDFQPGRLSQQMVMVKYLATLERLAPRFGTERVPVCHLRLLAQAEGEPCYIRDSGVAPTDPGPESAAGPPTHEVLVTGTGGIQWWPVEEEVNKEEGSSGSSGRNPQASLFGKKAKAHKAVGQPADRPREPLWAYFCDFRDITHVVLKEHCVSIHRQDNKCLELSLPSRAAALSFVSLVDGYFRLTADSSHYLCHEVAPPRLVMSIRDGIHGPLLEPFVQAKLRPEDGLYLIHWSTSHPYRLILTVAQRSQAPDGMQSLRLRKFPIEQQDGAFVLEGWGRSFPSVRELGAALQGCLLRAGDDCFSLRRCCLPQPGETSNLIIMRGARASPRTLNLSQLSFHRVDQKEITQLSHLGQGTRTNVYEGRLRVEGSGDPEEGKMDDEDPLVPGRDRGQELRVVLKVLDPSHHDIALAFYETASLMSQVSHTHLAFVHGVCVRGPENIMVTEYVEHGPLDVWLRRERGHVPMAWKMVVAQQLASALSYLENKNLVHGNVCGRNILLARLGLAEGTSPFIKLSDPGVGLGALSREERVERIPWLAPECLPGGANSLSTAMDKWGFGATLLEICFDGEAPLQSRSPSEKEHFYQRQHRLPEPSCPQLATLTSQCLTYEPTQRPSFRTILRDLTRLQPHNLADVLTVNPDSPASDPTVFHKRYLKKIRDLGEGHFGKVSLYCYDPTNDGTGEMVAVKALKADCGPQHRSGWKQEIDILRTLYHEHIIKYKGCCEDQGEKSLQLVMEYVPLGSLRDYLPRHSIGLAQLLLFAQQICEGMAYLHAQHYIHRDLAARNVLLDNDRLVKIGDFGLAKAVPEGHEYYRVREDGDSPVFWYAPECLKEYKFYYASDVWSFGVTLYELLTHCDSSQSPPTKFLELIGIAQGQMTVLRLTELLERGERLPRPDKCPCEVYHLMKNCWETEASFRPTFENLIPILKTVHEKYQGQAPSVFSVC
Sequence of JAK2 kinase activity on STAT5 in TF1 cells (O60674 whole entry): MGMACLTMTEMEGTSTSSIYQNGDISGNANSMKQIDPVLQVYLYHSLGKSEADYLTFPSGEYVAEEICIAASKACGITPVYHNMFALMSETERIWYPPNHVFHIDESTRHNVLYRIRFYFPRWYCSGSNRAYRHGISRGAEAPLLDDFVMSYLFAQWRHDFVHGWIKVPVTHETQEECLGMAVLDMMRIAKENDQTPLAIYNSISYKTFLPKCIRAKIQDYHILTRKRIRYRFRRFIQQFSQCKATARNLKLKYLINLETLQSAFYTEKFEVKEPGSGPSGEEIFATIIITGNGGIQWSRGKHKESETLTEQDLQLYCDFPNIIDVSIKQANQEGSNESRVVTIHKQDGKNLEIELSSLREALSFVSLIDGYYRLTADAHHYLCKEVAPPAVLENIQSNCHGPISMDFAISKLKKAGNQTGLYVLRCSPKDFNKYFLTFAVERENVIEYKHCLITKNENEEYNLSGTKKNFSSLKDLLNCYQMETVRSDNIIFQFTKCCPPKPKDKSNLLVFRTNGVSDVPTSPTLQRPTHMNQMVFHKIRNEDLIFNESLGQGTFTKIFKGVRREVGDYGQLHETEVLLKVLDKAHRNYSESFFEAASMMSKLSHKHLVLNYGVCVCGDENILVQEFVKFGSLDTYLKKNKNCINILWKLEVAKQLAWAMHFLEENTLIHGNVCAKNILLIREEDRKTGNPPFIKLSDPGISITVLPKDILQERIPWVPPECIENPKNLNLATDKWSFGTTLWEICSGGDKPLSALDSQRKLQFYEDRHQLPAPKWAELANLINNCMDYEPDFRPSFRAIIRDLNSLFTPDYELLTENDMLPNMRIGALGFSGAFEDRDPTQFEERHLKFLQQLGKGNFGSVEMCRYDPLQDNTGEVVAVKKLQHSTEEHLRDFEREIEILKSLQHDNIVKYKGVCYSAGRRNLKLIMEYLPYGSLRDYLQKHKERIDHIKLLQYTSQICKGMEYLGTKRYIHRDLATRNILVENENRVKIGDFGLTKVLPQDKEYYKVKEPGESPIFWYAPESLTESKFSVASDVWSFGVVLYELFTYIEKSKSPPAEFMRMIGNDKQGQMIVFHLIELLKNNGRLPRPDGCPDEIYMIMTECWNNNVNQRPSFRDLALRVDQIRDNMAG
T1 sequence (O60674 849-1124 limits assumed): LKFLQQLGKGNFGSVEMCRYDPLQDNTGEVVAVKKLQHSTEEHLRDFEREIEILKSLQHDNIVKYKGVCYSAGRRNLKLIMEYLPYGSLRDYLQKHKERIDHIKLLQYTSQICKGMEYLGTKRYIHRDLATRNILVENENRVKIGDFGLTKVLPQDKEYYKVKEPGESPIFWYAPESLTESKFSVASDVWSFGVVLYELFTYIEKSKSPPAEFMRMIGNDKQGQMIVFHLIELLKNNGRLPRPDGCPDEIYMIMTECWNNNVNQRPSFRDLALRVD
T2 sequence (P52333 822-1111 limits assumed): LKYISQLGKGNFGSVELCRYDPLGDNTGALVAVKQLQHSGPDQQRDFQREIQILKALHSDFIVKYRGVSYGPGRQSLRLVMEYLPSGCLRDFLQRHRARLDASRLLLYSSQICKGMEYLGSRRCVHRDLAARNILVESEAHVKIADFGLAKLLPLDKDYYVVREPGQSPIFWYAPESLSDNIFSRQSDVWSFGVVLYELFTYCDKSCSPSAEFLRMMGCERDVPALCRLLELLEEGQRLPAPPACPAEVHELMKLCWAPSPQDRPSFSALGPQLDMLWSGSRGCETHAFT

IC50 [1] [µM] | IC50 [2] [µM] | IC50 [3] [µM] | IC50 [4] [µM] | IC50 [5] [µM] | IC50 [6] [µM] | IC50 [7] [µM] | SMILES
< 0.1 | < 0.1 | < 0.1 | < 0.1 | < 0.1 | 0.02 to 0.05 | < 0.005 | C[C@@H]1CN(c2nc(-c3cnn(C4CC4)c3)cc3ncsc23)C(=O)[C@]1(C#N)C1CC1 [Example 357, (3R,4S)-3-cyclopropyl-1-(6-(1-cyclopropyl-1H-pyrazol-4-yl)thiazolo[5,4-c]pyridin-4-yl)-4-methyl-2-oxopyrrolidine-3-carbonitrile]
< 0.1 | 0.1 to 1 | < 0.1 | 0.1 to 1 | < 0.1 | 0.05 to 0.1 | < 0.005 | C[C@@H]1CN(c2nc(-c3cnn(C4CN(C)C4)c3)cc3ncsc23)C(=O)[C@]1(C#N)C1CC1 [Example 358, (3R,4S)-3-cyclopropyl-4-methyl-1-(6-(1-(1-methylazetidin-3-yl)-1H-pyrazol-4-yl)thiazolo[5,4-c]pyridin-4-yl)-2-oxopyrrolidine-3-carbonitrile]
